According to patent publication US20090012595A1, “Therapeutic Drug-Eluting Endoluminal Covering” (priority 2003, published 2009):

Assay: Paclitaxel release from films into octanol/PBS or octanol/water, 232 nm
Type: physicochemical
Conditions: PBS versus water, 0, 4 and 72 hours, 37° C., continuous shaking
Method: Paclitaxel release—Small samples (circular discs, 8 mm) of the Paclitaxel films were placed in a solution of octanol and phosphate buffered saline (PBS) or water at a proportion of 5 ml Octanol and 10 ml PBS (or water). The solution, including the film disc, was shaken continuously at 37° C. for several days. The amount of Paclitaxel in the octanol phase of the solution was measured using a spectrophotometer at 232 nm. Measurements were carried out periodically and the amount of drug released was normalized to baseline values for control films containing no drug.

- Profile of drug release from films: significantly faster than in water
Structure (SMILES): CC(=O)O[C@H]1C(=O)[C@@]2(C)[C@H]([C@H](OC(=O)c3ccccc3)[C@]3(O)C[C@H](OC(=O)[C@H](O)[C@@H](NC(=O)c4ccccc4)c4ccccc4)C(C)=C1C3(C)C)[C@]1(OC(C)=O)CO[C@@H]1C[C@@H]2O [paclitaxel]
